Test results reported in US20230085307A1, “PYRIDAZINONE COMPOUND AND HERBICIDE” (NISSAN CHEMICAL CORPORATION, priority 2019, published 2023).

Tests used:
late watergrass = assay: Test Example 1: herbicidal activity, application before weed generation under submerged conditions (Table 16, symbol A); format: in vivo, late watergrass (Echinochloa oryzicola); conditions: amount of applied herbicide 320 g/ha
In short: (§1)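 Submerged Wagner pots (alluvial soil, 4 cm water) sown with weed seeds and planted with 2.5-leaf rice seedlings; emulsifiable concentrate diluted in water applied to water surface on sowing day. Held in greenhouse at 25-30 °C; injury scored 0-5 by herbicidal rate after three weeks.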

Japanese bulrush = assay: Test Example 1: herbicidal activity, application before weed generation under submerged conditions (Table 16, symbol B); format: in vivo, Japanese bulrush (Schoenoplectus juncoides); conditions: amount of applied herbicide 320 g/ha
In short: as §1

oval-leafed pondweed = assay: Test Example 1: herbicidal activity, application before weed generation under submerged conditions (Table 16, symbol C); format: in vivo, oval-leafed pondweed (Monochoria vaginalis); conditions: amount of applied herbicide 320 g/ha
In short: as §1

barnyard grass [1] = assay: Test Example 3: herbicidal effect by foliage application, Wagner pot (Table 18, symbol H); format: in vivo, barnyard grass (Echinochloa crus-galli); conditions: 320 g/ha
In short: (§2)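 Plants were sown in alluvial soil held under 0.1–0.5 cm standing water and grown 14 days in a greenhouse at 25–30 °C. An emulsifiable formulation, water-diluted to the set dose, was then sprayed onto the foliage, and effects were scored three weeks later using previously defined criteria.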

Chinese sprangletop = assay: Test Example 3: herbicidal effect by foliage application, Wagner pot (Table 18, symbol D); format: in vivo, chinese sprangletop (Leptochloa chinensis); conditions: 320 g/ha
In short: as §2

rice flat sedge = assay: Test Example 3: herbicidal effect by foliage application, Wagner pot (Table 18, symbol E); format: in vivo, rice flat sedge (Cyperus iria); conditions: 320 g/ha
In short: as §2

southern crabgrass [2] = assay: Test Example 4: herbicidal effect by soil treatment (Table 19, symbol F); format: in vivo, southern crabgrass (Digitaria ciliaris); conditions: amount of applied herbicide 320 g/ha
In short: (§3)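 Soil-surface application: an emulsion agent diluted with water to the predetermined dose is sprayed uniformly over seeds lying under roughly 1.5 cm of sterilized diluvial soil. Boxes stay in a greenhouse at 25° C. to 30° C. Three weeks later, each species is graded on previously defined criteria.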

green foxtail [3] = assay: Test Example 4: herbicidal effect by soil treatment (Table 19, symbol G); format: in vivo, green foxtail (Setaria viridis); conditions: amount of applied herbicide 320 g/ha
In short: as §3

barnyard grass [4] = assay: Test Example 4: herbicidal effect by soil treatment (Table 19, symbol H); format: in vivo, barnyard grass (Echinochloa crus-galli); conditions: amount of applied herbicide 320 g/ha
In short: as §3

wild oat [5] = assay: Test Example 4: herbicidal effect by soil treatment (Table 19, symbol I); format: in vivo, wild oat (Avena fatua); conditions: amount of applied herbicide 320 g/ha
In short: as §3

blackgrass [6] = assay: Test Example 4: herbicidal effect by soil treatment (Table 19, symbol J); format: in vivo, blackgrass (Alopecurus myosuroides); conditions: amount of applied herbicide 320 g/ha
In short: as §3

Italian ryegrass [7] = assay: Test Example 4: herbicidal effect by soil treatment (Table 19, symbol K); format: in vivo, Italian ryegrass (Lolium multiflorum); conditions: amount of applied herbicide 320 g/ha
In short: as §3

windgrass [8] = assay: Test Example 4: herbicidal effect by soil treatment (Table 19, symbol L); format: in vivo, windgrass (Apera spica-venti); conditions: amount of applied herbicide 320 g/ha
In short: as §3

velvetleaf [9] = assay: Test Example 4: herbicidal effect by soil treatment (Table 19, symbol M); format: in vivo, velvetleaf (Abutilon theophrasti); conditions: amount of applied herbicide 320 g/ha
In short: as §3

redroot pigweed [10] = assay: Test Example 4: herbicidal effect by soil treatment (Table 19, symbol N); format: in vivo, redroot pigweed (Amaranthus retroflexus); conditions: amount of applied herbicide 320 g/ha
In short: as §3

lambsquarters [11] = assay: Test Example 4: herbicidal effect by soil treatment (Table 19, symbol O); format: in vivo, lambsquarters (Chenopodium album); conditions: amount of applied herbicide 320 g/ha
In short: as §3

chickweed [12] = assay: Test Example 4: herbicidal effect by soil treatment (Table 19, symbol P); format: in vivo, common chickweed (Stellaria media); conditions: amount of applied herbicide 320 g/ha
In short: as §3

persian speedwell [13] = assay: Test Example 4: herbicidal effect by soil treatment (Table 19, symbol R); format: in vivo, Persian speedwell (Veronica persica); conditions: amount of applied herbicide 320 g/ha
In short: as §3

southern crabgrass [14] = assay: Test Example 5: herbicidal effect by foliage application, plastic box (Table 20, symbol F); format: in vivo, southern crabgrass (Digitaria ciliaris); conditions: amount of applied herbicide 320 g/ha; foliage application after 14-day growth; evaluated three weeks after application
In short: (§4)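 Sow seeds spot-wise in sterilized diluvial soil; cover with ~1.5 cm soil. Grow 14 days in greenhouse, 25° C. to 30° C. Spray foliage with emulsion diluted to predetermined amount. Rate effect after 3 weeks.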

green foxtail [15] = assay: Test Example 5: herbicidal effect by foliage application, plastic box (Table 20, symbol G); format: in vivo, green foxtail (Setaria viridis); conditions: amount of applied herbicide 320 g/ha; foliage application after 14-day growth; evaluated three weeks after application
In short: as §4

barnyard grass [16] = assay: Test Example 5: herbicidal effect by foliage application, plastic box (Table 20, symbol H); format: in vivo, barnyard grass (Echinochloa crus-galli); conditions: amount of applied herbicide 320 g/ha; foliage application after 14-day growth; evaluated three weeks after application
In short: as §4

wild oat [17] = assay: Test Example 5: herbicidal effect by foliage application, plastic box (Table 20, symbol I); format: in vivo, wild oat (Avena fatua); conditions: amount of applied herbicide 320 g/ha; foliage application after 14-day growth; evaluated three weeks after application
In short: as §4

blackgrass [18] = assay: Test Example 5: herbicidal effect by foliage application, plastic box (Table 20, symbol J); format: in vivo, blackgrass (Alopecurus myosuroides); conditions: amount of applied herbicide 320 g/ha; foliage application after 14-day growth; evaluated three weeks after application
In short: as §4

Italian ryegrass [19] = assay: Test Example 5: herbicidal effect by foliage application, plastic box (Table 20, symbol K); format: in vivo, Italian ryegrass (Lolium multiflorum); conditions: amount of applied herbicide 320 g/ha; foliage application after 14-day growth; evaluated three weeks after application
In short: as §4

windgrass [20] = assay: Test Example 5: herbicidal effect by foliage application, plastic box (Table 20, symbol L); format: in vivo, windgrass (Apera spica-venti); conditions: amount of applied herbicide 320 g/ha; foliage application after 14-day growth; evaluated three weeks after application
In short: as §4

velvetleaf [21] = assay: Test Example 5: herbicidal effect by foliage application, plastic box (Table 20, symbol M); format: in vivo, velvetleaf (Abutilon theophrasti); conditions: amount of applied herbicide 320 g/ha; foliage application after 14-day growth; evaluated three weeks after application
In short: as §4

redroot pigweed [22] = assay: Test Example 5: herbicidal effect by foliage application, plastic box (Table 20, symbol N); format: in vivo, redroot pigweed (Amaranthus retroflexus); conditions: amount of applied herbicide 320 g/ha; foliage application after 14-day growth; evaluated three weeks after application
In short: as §4

lambsquarters [23] = assay: Test Example 5: herbicidal effect by foliage application, plastic box (Table 20, symbol O); format: in vivo, lambsquarters (Chenopodium album); conditions: amount of applied herbicide 320 g/ha; foliage application after 14-day growth; evaluated three weeks after application
In short: as §4

chickweed [24] = assay: Test Example 5: herbicidal effect by foliage application, plastic box (Table 20, symbol P); format: in vivo, common chickweed (Stellaria media); conditions: amount of applied herbicide 320 g/ha; foliage application after 14-day growth; evaluated three weeks after application
In short: as §4

persian speedwell [25] = assay: Test Example 5: herbicidal effect by foliage application, plastic box (Table 20, symbol R); format: in vivo, Persian speedwell (Veronica persica); conditions: amount of applied herbicide 320 g/ha; foliage application after 14-day growth; evaluated three weeks after application
In short: as §4

`CCCC(=O)Oc1c(C)nn(C)c(=O)c1-c1c(-c2ccc(OC(C)C)cc2)sc2cc(F)c(F)cc12` [5-020] was tested, and the “Herbicidal effect, A: late watergrass” value (late watergrass) was 3 (Herbicidal rate of 40% or more and less than 70%), the “Herbicidal effect, B: Japanese bulrush” value (Japanese bulrush) was 0 (Herbicidal rate of 5% or less (almost no effect)) and the “Herbicidal effect, C: oval-leafed pondweed” value (oval-leafed pondweed) was 0 (Herbicidal rate of 5% or less (almost no effect)). The “herbicidal effect on barnyard grass (H)” value (barnyard grass [1]) was 3 (Herbicidal rate of 40% or more and less than 70%), the “herbicidal effect on Chinese sprangletop (D)” value (Chinese sprangletop) was 0 (Herbicidal rate of 5% or less (almost no effect)) and the “herbicidal effect on rice flat sedge (E)” value (rice flat sedge) was 0 (Herbicidal rate of 5% or less (almost no effect)). The “F: southern crabgrass, herbicidal effect grade” value (southern crabgrass [2]) was 0 (Herbicidal rate of 5% or less (almost no effect)), the “G: green foxtail, herbicidal effect grade” value (green foxtail [3]) was 0 (Herbicidal rate of 5% or less (almost no effect)) and the “H: barnyard grass, herbicidal effect grade” value (barnyard grass [4]) was 0 (Herbicidal rate of 5% or less (almost no effect)). For the same molecule, the “I: wild oat, herbicidal effect grade” value (wild oat [5]) was 0 (Herbicidal rate of 5% or less (almost no effect)), the “J: blackgrass, herbicidal effect grade” value (blackgrass [6]) was 0 (Herbicidal rate of 5% or less (almost no effect)) and the “K: Italian ryegrass, herbicidal effect grade” value (Italian ryegrass [7]) was 0 (Herbicidal rate of 5% or less (almost no effect)). The “L: windgrass, herbicidal effect grade” value (windgrass [8]) was 0 (Herbicidal rate of 5% or less (almost no effect)), the “M: velvetleaf, herbicidal effect grade” value (velvetleaf [9]) was 0 (Herbicidal rate of 5% or less (almost no effect)) and the “N: redroot pigweed, herbicidal effect grade” value (redroot pigweed [10]) was 3 (Herbicidal rate of 40% or more and less than 70%). The “O: lambsquarters, herbicidal effect grade” value (lambsquarters [11]) was 0 (Herbicidal rate of 5% or less (almost no effect)), the “P: chickweed, herbicidal effect grade” value (chickweed [12]) was 0 (Herbicidal rate of 5% or less (almost no effect)) and the “R: persian speedwell, herbicidal effect grade” value (persian speedwell [13]) was 3 (Herbicidal rate of 40% or more and less than 70%). The “Herbicidal effect by foliage application, F: southern crabgrass” value (southern crabgrass [14]) was 0 (Herbicidal rate of 5% or less (almost no effect)), the “Herbicidal effect by foliage application, G: green foxtail” value (green foxtail [15]) was 0 (Herbicidal rate of 5% or less (almost no effect)) and the “Herbicidal effect by foliage application, H: barnyard grass” value (barnyard grass [16]) was 1 (Herbicidal rate of 5% or more and less than 20%). For the same molecule, the “Herbicidal effect by foliage application, I: wild oat” value (wild oat [17]) was 0 (Herbicidal rate of 5% or less (almost no effect)), the “Herbicidal effect by foliage application, J: blackgrass” value (blackgrass [18]) was 0 (Herbicidal rate of 5% or less (almost no effect)) and the “Herbicidal effect by foliage application, K: Italian ryegrass” value (Italian ryegrass [19]) was 0 (Herbicidal rate of 5% or less (almost no effect)). The “Herbicidal effect by foliage application, L: windgrass” value (windgrass [20]) was 0 (Herbicidal rate of 5% or less (almost no effect)), the “Herbicidal effect by foliage application, M: velvetleaf” value (velvetleaf [21]) was 2 (Herbicidal rate of 20% or more and less than 40%) and the “Herbicidal effect by foliage application, N: redroot pigweed” value (redroot pigweed [22]) was 4 (Herbicidal rate of 70% or more and less than 90%). For the same molecule, the “Herbicidal effect by foliage application, O: lambsquarters” value (lambsquarters [23]) was 3 (Herbicidal rate of 40% or more and less than 70%), the “Herbicidal effect by foliage application, P: chickweed” value (chickweed [24]) was 4 (Herbicidal rate of 70% or more and less than 90%) and the “Herbicidal effect by foliage application, R: persian speedwell” value (persian speedwell [25]) was 5 (Herbicidal rate of 90% or more (almost completely withered)).
